Measurements taken from patent publication US20180085416A1, “TRADITIONAL CHINESE MEDICINE COMPOSITION AND PREPARATION METHOD AND USE THEREOF” (INFINITUS (CHINA) COMPANY LTD., priority 2016, published 2018).

Legend:
[1] = test system: capsaicin induced rats' pharyngitis; experiment: Effect on acute pharyngitis (capsaicin induced pharyngitis), EB dye exudation at pharyngeal mucosa; type: in vivo, SD rats; details: 1 mg/kg intragastric, 10 days before modeling
Method: Experimental method: 90 male SD rats (˜8 weeks age) were randomized into 9 groups (10 rats/group). […] Animals from Comparative Example groups and Example of the present application groups were intragastrically administrated 30 days before modeling, once a day. Blank control group and model control group were administered equal volume of distilled water. […] The positive control group was administered at 1 mg/kg, and was intragastrically administrated 10 days before modeling. 24 hours after the last administration, the rats were anesthetized, injected with EB dye through the side tail vein. Ten minutes later, capsaicin was smeared to velopharyngeal tissue mucosa of rats, wherein each point was smeared for 3 times/5 seconds, with a total of 60 minutes. Blank control group was not subjected to stimulation.
After the end of the experiment, all rats were sacrificed by cervical dislocation, and were subjected to quantitative determination of EB dye exudation at pharyngeal mucosa respectively, in order to evaluate the improvement situation of pharyngeal mucosa inflammation of rats induced by capsaicin.

[2] = test system: carrageenan induced toe swelling of mice; experiment: Acute inflammatory model: carrageenan-induced paw edema; type: in vivo, Balb/c mice; details: 10 mg/kg, blank control = 100
Method: 90 Balb/c male mice (about 8 weeks old) were randomized into 9 groups based on body weight (10 mice/group). The groups were respectively blank control group, model group and positive control group—dexamethasone group, high, medium and low dose groups of the traditional Chinese medicine composition produced by Comparative Example 1 (0.35, 1.05, 2.10 ml/kg), high, medium and low dose groups of the medicament produced by Example 1 (0.35, 1.05, 2.10 ml/kg). Animals from Comparative Example group and Examples of the present application groups were intragastrically administrated 30 days before modeling, once a day. Blank control group and model control group were administered equal volume of distilled water. The administration volume was always 2.10 ml/kg. Dexamethasone group was administered at 10 mg/kg, and was intragastrically administrated 10 days before modeling. The model control group was intragastrically administrated equal volume of distilled water for consecutive 30 days, once a day. On day 30, 1 hour after the test samples were administered, a line was drawn using a marker pen along the external malleolus of right rear paw of rats as the marker. A toe volume measuring instrument was used to measure the volumes of right rear toes of each groups of rats (as the toe volume at 0 hour), and then the right rear toes of rats were subcutaneously injected 1% carrageenan (0.05 mL/rat). The thickness of rat paws at 1, 2, 4 hours were measured respectively. Each animal was measured for 3 times at the same site, and the results were averaged. The swelling value is defined as the difference between the toe volumes measured at different times and the toe volumes before the action of proinflammatory agent, which is used to calculate the toe volume swelling rates at each time period.
[Paw edema (mm)]=[footpad thickness of carrageenan (mm)−footpad thickness of PBS (mm)].

[3] = test system: mouse tampon granuloma; experiment: Chronic inflammatory model: cotton pellet (tampon) induced granuloma; type: in vivo, Balb/c mice; details: mice, 10 mg/kg
Method: 80 Balb/c male mice (about 8 weeks old) were randomized into 8 groups based on body weight (10 mice/group). The groups were respectively model group and positive control group—dexamethasone group, high, medium and low dose groups of the traditional Chinese medicine composition produced by Comparative Example 1 (0.35, 1.05, 2.10 ml/kg), high, medium and low dose groups of the medicament produced by Example 1 (0.35, 1.05, 2.10 ml/kg). Animals from Comparative Example group and Examples of the present application groups were intragastrically administrated 30 days before modeling, once a day. Model control group was administered equal volume of deionized water. The administration volume was always 2.10 ml/kg. Dexamethasone group was administered at 10 mg/kg, and was intragastrically administrated 10 days before modeling. After the last administration, the mice were anesthetized by intraperitoneal injection of 3% pentobarbital sodium at a dose of 60 mg/kg body weight. After anesthesia, the animals were fixed in supine position, and the bilateral inguinal clothing hairs of the rats were removed with a hair removal device. After iodophor disinfection, the rats were subjected to skin incision for about 2 cm at both sides of the groin, and a sterilized tampon was implanted at both sides of the groin of the rats. […]

[4] = test system: excreted amount of phenol red in trachea of mice; experiment: Expectorant effect in mice (phenol red excretion in trachea); type: in vivo, Balb/c mice
Method: 80 Balb/c male mice (about 8 weeks old) were randomized into 8 groups based on body weight (10 mice/group). The groups were respectively blank control group and positive control group—ammonium chloride group (1 g/kg), high, medium and low dose groups of the traditional Chinese medicine composition produced by Comparative Example 1 (0.35, 1.05, 2.10 ml/kg), high, medium and low dose groups of the medicament produced by Example 1 (0.35, 1.05, 2.10 ml/kg). The blank control group was administered equal volume of deionized water. The administration volume was always 2.10 ml/kg. Gavage was performed for consecutive 30 days, once/day. 30 min before modeling, the positive control group was administered. […] A certain amount of phenol red was weighted with a balance, and 5% sodium bicarbonate solution was added to formulate 1 ml solution containing […] of phenol red, which was diluted sequentially to 1 mL solution containing 0.1, 0.3, 0.7, 1.0, 3.0, 5.0, 10.0 μg of phenol red was measured for absorbance. A standard curve was made by taking the dose of phenol red as abscissa, absorbance as ordinate. The amount of phenol red was calculated from the standard curve of phenol red according to the measured OD value. […]

SMILES | exudated amount of evans blue (EB) [1] [µg/g] | Swelling degrees of toes at different times after inflammation, 1 h ([2]; 1 h) | Swelling degrees of toes at different times after inflammation, 2 h ([2]; 2 h) | Swelling degrees of toes at different times after inflammation, 4 h ([2]; 4 h) | wet weight of granuloma [3] | Net weight of granuloma ([3]; dried weight minus original weight of tampon) [mg] | excreted amount of phenol red, result in words ([4]; compared with control group) | excreted amount of phenol red ([4]; mice, 1 g/kg, 30 min before modeling) [µg/mL]
C[C@@H]1C[C@H]2[C@@H]3CCC4=CC(=O)C=C[C@]4(C)[C@@]3(F)[C@@H](O)C[C@]2(C)[C@@]1(O)C(=O)CO [dexamethasone, Dexamethasone] | 36.98 ± 2.74 | 177.23 | 164.17 | 157.17 | 217.11 | 13.03 | – | –
Cl.N [ammonium chloride] | – | – | – | – | – | – | significantly (P<0.05) increase the excreted amount of phenol red | 7.92 ± 0.88
